Measurements from patent US20230295197A1, “STAT5 and STAT6 Degraders and Uses Thereof” (REGENTS OF THE UNIVERSITY OF MICHICAN, priority 2022, published 2023).
Like-named read-outs stand apart in the source and are kept apart here.

Biological target: T1, STAT6 (Homo sapiens, UniProt P42226)
T1 construct: endogenous in cells; host or cells: MOLM-16, KU-812, SKNO1, MB231, L1236
T1 sequence (P42226 1-847): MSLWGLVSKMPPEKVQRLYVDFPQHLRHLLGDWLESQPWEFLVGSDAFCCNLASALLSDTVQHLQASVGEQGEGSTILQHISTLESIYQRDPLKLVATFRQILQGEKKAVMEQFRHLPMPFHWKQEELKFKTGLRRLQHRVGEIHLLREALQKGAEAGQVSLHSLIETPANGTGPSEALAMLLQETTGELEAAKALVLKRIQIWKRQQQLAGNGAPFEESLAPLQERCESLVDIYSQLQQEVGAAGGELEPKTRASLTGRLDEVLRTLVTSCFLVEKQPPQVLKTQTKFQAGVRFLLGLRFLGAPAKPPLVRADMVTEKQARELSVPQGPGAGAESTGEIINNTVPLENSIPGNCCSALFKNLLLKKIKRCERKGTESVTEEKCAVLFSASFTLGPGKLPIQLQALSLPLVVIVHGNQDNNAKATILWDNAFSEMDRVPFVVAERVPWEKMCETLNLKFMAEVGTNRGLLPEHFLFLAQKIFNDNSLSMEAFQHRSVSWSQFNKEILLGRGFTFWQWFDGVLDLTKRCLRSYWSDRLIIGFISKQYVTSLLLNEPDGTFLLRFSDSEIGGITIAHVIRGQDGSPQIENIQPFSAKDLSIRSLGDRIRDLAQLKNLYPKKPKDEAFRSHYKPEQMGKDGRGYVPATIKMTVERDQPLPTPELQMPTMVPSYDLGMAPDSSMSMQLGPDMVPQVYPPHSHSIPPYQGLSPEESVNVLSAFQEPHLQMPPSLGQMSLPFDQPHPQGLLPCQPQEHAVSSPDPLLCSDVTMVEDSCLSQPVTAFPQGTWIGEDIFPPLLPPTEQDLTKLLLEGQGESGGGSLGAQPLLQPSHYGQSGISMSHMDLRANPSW
Test: Immunoblotting (Western blot) analysis of STAT6 degradation efficiency of degraders in treated cells
Format: cell-based
Protocol: Evaluation of the degradation efficiency of degraders may be accomplished by immunoblotting analysis. The representative general protocol is the following:
Cells are maintained in the appropriate culture medium with 10% FBS at 37° C. and an atmosphere of 5% CO2. Cell lines are used within three months of thawing fresh vials. Cells are lysed 1× Cell Lysis Buffer (Cell Signaling Technology, #9803), resolved by SDS-PAGE NuPAGE gel (Thermo Fisher Scientific), and transferred to a PVDF membrane (Millipore). Membranes are blocked using Odyssey TBS Blocker Buffer (LI-COR). IRDye 680RD and 800CW Dye-labeled secondary antibodies (LI-COR) are used. The washed membranes are scanned using Odyssey CLx imager (LI-COR). The intensity of Western blot signaling is quantitated using the Odyssey software. Primary antibodies used are: STAT5 Rabbit mAb (Cell Signaling Technology, #94205), STAT6 Rabbit mAb (Cell Signaling Technology, #5397) and GAPDH mouse monoclonal antibody (Santa Cruz Biotechnology, sc-47724).
To evaluate the degradation efficiency of degraders, immunoblotting analysis was performed. The general protocol is the following.
About 1 million cells for each data point were treated with compounds at indicated concentrations and durations. Untreated and treated cells in cell culture medium were transferred into tubes, followed by centrifugation at 3,000 rpm and 4° C. for 6 min Supernatants were removed from tubes and radioimmunoprecipitation assay (RIPA) lysis buffer supplemented with 1% protease inhibitor cocktail (Fisher Scientific cat. PI87786) and phosphatase inhibitor (Roche cat. 04906837001) were added to tubes containing the remaining cell pellets. The tubes were then left on ice for 30 min and placed in a −80° C. freezer. Subsequently they were thawed in 37° C. water, then centrifuged at 14,000 rpm for 15 min and the cell lysates transferred to new tubes. The concentration of total proteins in each tube was calculated using the Pierce BCA protein Assay kit (cat. 23225). Based on the calculated protein concentration, cell lysates containing approximately the same amount of proteins were transferred to new tubes, then distilled water and 4× Protein Sample Loading Buffer for Western Blots (LI-COR cat. 928-40004) supplemented with 20% of mercaptoethanol (Sigma Aldrich cat. M6250) were added on ice. The cell lysates were then reduced and denatured at 95° C. for 5 min. From the tubes containing cell lysates an equal amount of protein samples (20-40 μg) was loaded into precast 8%, 10%, 4%-12%, or 4%-20% Tris-glycine gels (Novex) filled with Tris-glycine SDS running buffer. After the proteins were resolved, they were transferred onto Immobile-FL PVDF Membrane (Millipore Sigma cat. IPFL00010), using Mini Trans-Blot Electrophoretic Transfer Cell (Bio-Rad 1703930). The membranes were blocked with Intercept Blocking Buffer (LI-COR cat. 927-70001) in LI-COR Western Blot boxes for 1 h at rt. The membranes were washed with 1× Tris-buffered saline-Tween-20 (TBST, 1× solution was made from 20×TBST solution, ThermoFisher Scientific cat. 28360) for 5 min 4 times. The membranes were incubated overnight at 4° C. in Intercept Blocking Buffer supplemented with primary antibodies (normally antibody:buffer 1:1000) and Tween-20. The membranes were washed with TBST for 5 min 4 times and were incubated with Intercept Blocking Buffer supplemented with IRDye 800CE Secondary Antibodies, IRDye 680RD Secondary Antibodies (LI-COR biosciences), Tween-20, and 10% SDS solution, for 1 h at rt. The membranes were then washed with TBST for 5 min 4 times and rinsed with deionized water before drying and scanning with Odyssey Dlx Amazing System (LI-COR). The immunoblots were finally quantified by the software.

[1] = L1236 cells, read-out: DC50 S6 L1236
[2] = MOLM-16 cells, class symbols, read-out: DC50 S6 MOLM-16

DC50 (MOLM-16 cells, numeric bound, read-out: DC50 S6 MOLM-16) [µM] | SMILES | DC50 [1] [µM] | DC50 [2] [µM]
 | Cc1ncsc1-c1ccc([C@H](C)NC(=O)[C@@H]2C[C@@H](O)CN2C(=O)[C@@H](NC(=O)CNC(=O)COc2ccc3c(c2)CN(C(=O)[C@@H](NC(=O)c2cc4cc(C(F)(F)P(=O)(O)O)ccc4s2)C(C)(C)C)[C@H](C(=O)N2CCO[C@H](c4ccccc4)C2)C3)C(C)(C)C)cc1 [Compound 461, (difluoro(2-(((S)-1-((S)-7-(2-((2-(((S)-1-((2S,4R)-4-hydroxy-2-(((S)-1-(4-(4-methylthiazol-5-yl)phenyl)ethyl)carbamoyl)pyrrolidin-1-yl)-3,3-dimethyl-1-oxobutan-2-yl)amino)-2-oxoethyl)amino)-2-oxoethoxy)-3-((R)-2-phenylmorpholine-4-carbonyl)-3,4-dihydroisoquinolin-2(1H)-yl)-3,3-dimethyl-1-oxobutan-2-yl)carbamoyl)benzo[b]thiophen-5-yl)methyl)phosphonic acid] | > 10 | > 10
 | Cc1ncsc1-c1ccc([C@H](C)NC(=O)[C@@H]2C[C@@H](O)CN2C(=O)[C@@H](NC(=O)CCCNC(=O)CO[C@H]2C[C@@H](C(=O)N3CCO[C@H](c4ccccc4)C3)N(C(=O)[C@@H](NC(=O)c3cc4cc(C(F)(F)P(=O)(O)O)ccc4s3)C(C)(C)C)C2)C(C)(C)C)cc1 [Compound 427, (difluoro(2-(((S)-1-((2S,4S)-4-(2-((4-(((S)-1-((2S,4R)-4-hydroxy-2-(((S)-1-(4-(4-methylthiazol-5-yl)phenyl)ethyl)carbamoyl)pyrrolidin-1-yl)-3,3-dimethyl-1-oxobutan-2-yl)amino)-4-oxobutyl)amino)-2-oxoethoxy)-2-((R)-2-phenylmorpholine-4-carbonyl)pyrrolidin-1-yl)-3,3-dimethyl-1-oxobutan-2-yl)carbamoyl)benzo[b]thiophen-5-yl)methyl)phosphonic acid] | > 10 | > 10
 | CC(C)(C)[C@H](NC(=O)c1cc2cc(C(F)(F)P(=O)(O)O)ccc2s1)C(=O)N1C[C@@H](OCC(=O)NCCCCCCCCC#Cc2cccc3c2C(=O)N(C2CCC(=O)NC2=O)C3=O)C[C@H]1C(=O)N1CCC[C@H](c2ccccc2)C1 (stereo partly drawn) [Compound 503, ((2-(((2S)-1-((2S,4S)-4-(2-((10-(2-(2,6-dioxopiperidin-3-yl)-1,3-dioxoisoindolin-4-yl)dec-9-yn-1-yl)amino)-2-oxoethoxy)-2-((R)-3-phenylpiperidine-1-carbonyl)pyrrolidin-1-yl)-3,3-dimethyl-1-oxobutan-2-yl)carbamoyl)benzo[b]thiophen-5-yl)difluoromethyl)phosphonic acid] |  | > 10
> 0.3 | CC(C)(C)[C@H](NC(=O)c1cc2cc(C(F)(F)P(=O)(O)O)ccc2s1)C(=O)N1C[C@@H](OCCCCCC#Cc2cccc3c2CN(C2CCC(=O)NC2=O)C3=O)C[C@H]1C(=O)N1CCC[C@H](c2ccccc2)C1 (stereo partly drawn) [Compound 601, ((2-(((2S)-1-((2S,4S)-4-((7-(2-(2,6-dioxopiperidin-3-yl)-1-oxoisoindolin-4-yl)hept-6-yn-1-yl)oxy)-2-((R)-3-phenylpiperidine-1-carbonyl)pyrrolidin-1-yl)-3,3-dimethyl-1-oxobutan-2-yl)carbamoyl)benzo[b]thiophen-5-yl)difluoromethyl)phosphonic acid] |  | 
 | CC(C)(C)[C@H](NC(=O)c1cc2cc(C(F)(F)P(=O)(O)O)ccc2s1)C(=O)N1Cc2cc(OCC(=O)NCCCCC#Cc3cccc4c3C(=O)N(C3CCC(=O)NC3=O)C4=O)ccc2C[C@H]1C(=O)N1CCO[C@H](c2ccccc2)C1 (stereo partly drawn) [Compound 541, ((2-(((2S)-1-((3S)-7-(2-((6-(2-(2,6-dioxopiperidin-3-yl)-1,3-dioxoisoindolin-4-yl)hex-5-yn-1-yl)amino)-2-oxoethoxy)-3-((R)-2-phenylmorpholine-4-carbonyl)-3,4-dihydroisoquinolin-2(1H)-yl)-3,3-dimethyl-1-oxobutan-2-yl)carbamoyl)benzo[b]thiophen-5-yl)difluoromethyl)phosphonic acid] |  | > 10
 | Cc1ncsc1-c1ccc([C@H](C)NC(=O)[C@@H]2C[C@@H](O)CN2C(=O)[C@@H](NC(=O)CCCCNC(=O)CO[C@H]2C[C@@H](C(=O)N3CCC[C@H](c4ccccc4)C3)N(C(=O)[C@@H](NC(=O)c3cc4cc(C(F)(F)P(=O)(O)O)ccc4s3)C(C)(C)C)C2)C(C)(C)C)cc1 [Compound 437, (difluoro(2-(((S)-1-((2S,4S)-4-(2-((5-(((S)-1-((2S,4R)-4-hydroxy-2-(((S)-1-(4-(4-methylthiazol-5-yl)phenyl)ethyl)carbamoyl)pyrrolidin-1-yl)-3,3-dimethyl-1-oxobutan-2-yl)amino)-5-oxopentyl)amino)-2-oxoethoxy)-2-((R)-3-phenylpiperidine-1-carbonyl)pyrrolidin-1-yl)-3,3-dimethyl-1-oxobutan-2-yl)carbamoyl)benzo[b]thiophen-5-yl)methyl)phosphonic acid] | > 10 | > 10
 | CC(C)(C)[C@H](NC(=O)c1cc2cc(C(F)(F)P(=O)(O)O)ccc2s1)C(=O)N1CCN(C(=O)CC(=O)NCCCCC#Cc2ccc3c(c2)C(=O)N(C2CCC(=O)NC2=O)C3=O)C[C@H]1C(=O)N1CCC[C@H](c2ccccc2)C1 (stereo partly drawn) [Compound 528, ((2-(((2S)-1-((2S)-4-(3-((6-(2-(2,6-dioxopiperidin-3-yl)-1,3-dioxoisoindolin-5-yl)hex-5-yn-1-yl)amino)-3-oxopropanoyl)-2-((R)-3-phenylpiperidine-1-carbonyl)piperazin-1-yl)-3,3-dimethyl-1-oxobutan-2-yl)carbamoyl)benzo[b]thiophen-5-yl)difluoromethyl)phosphonic acid] |  | > 10
 | CC(C)(C)[C@H](NC(=O)c1cc2cc(C(F)(F)P(=O)(O)O)ccc2s1)C(=O)N1Cc2cc(OCC(=O)NCCCC#Cc3ccc4c(c3)C(=O)N(C3CCC(=O)NC3=O)C4=O)ccc2C[C@H]1C(=O)N1CCC[C@H](c2ccccc2)C1 (stereo partly drawn) [Compound 554, ((2-(((2S)-1-((3S)-7-(2-((5-(2-(2,6-dioxopiperidin-3-yl)-1,3-dioxoisoindolin-5-yl)pent-4-yn-1-yl)amino)-2-oxoethoxy)-3-((R)-3-phenylpiperidine-1-carbonyl)-3,4-dihydroisoquinolin-2(1H)-yl)-3,3-dimethyl-1-oxobutan-2-yl)carbamoyl)benzo[b]thiophen-5-yl)difluoromethyl)phosphonic acid] |  | > 10
